Assay [1] has as its target T1, human indoleamine 2,3-dioxygenase 1 (hIDO1) (Homo sapiens, UniProt P14902).
T1 construct: His tag (N); purchased BPS Bioscience, San Diego, Calif., USA; host or cells: E. coli
The experiment in a line: In-vitro human indoleamine 2,3-dioxygenase 1 (IDO1) enzyme assay. Type of assay: biochemical. Particulars: for IC50: hIDO1 enzyme; for inhibition at 1 µM: hIDO1 enzyme at 1.0 μM concentration; for inhibition at 10 µM: hIDO1 enzyme at 10.0 μM concentration. How it is done:
In-vitro human indoleamine 2,3-dioxygenase 1 (IDO1) enzyme assay: In the in-vitro human indoleamine 2,3-dioxygenase 1 (hIDO1) enzyme assay for screening inhibitor compounds, hIDO1 with an N-terminal histidine tag expressed and purified from E. coli (BPS Bioscience, San Diego, Calif., USA) was used. All other materials were procured from Sigma-Aldrich, St. Louis, Mo., USA.
The assay method for monitoring the conversion of L-tryptophan to N-formylkynurenine by hlDO1 was carried out as follows. hlDO1 (50 ng) was incubated with tryptophan (80 μM) in the presence of ascorbic acid (10 mM), methylene blue (10 μM), catalase (100 μg/ml) and 0.01% Tween-20 in sodium phosphate buffer (50 mM; pH 6.5) at 37° C. for 60 min. The reaction was terminated with 200 mM piperidine (PIP) and further incubated at about 65° C. for about 20 minutes to convert N-formylkynurenine (NFK) to NFK-PIP. The reaction mixture was then incubated at room temperature for about 1 hour. The fluorescence intensity was read in a fluorescence microplate reader at an excitation wavelength of 400 nm and emission wavelength of 500 nm. Percent inhibition at each concentration of test compounds was determined by estimating the decrease in NFK-PIP. Data were analyzed using nonlinear regression to generate IC50 values using Graph Pad Prism® 6.

The target in assay [2] is T2, human tryptophan 2,3-dioxygenase (hTDO) (Homo sapiens, UniProt P48775).
T2 construct: His tag (N); purchased BPS Bioscience, San Diego, Calif., USA; host or cells: E. coli
T2 sequence (P48775 whole entry): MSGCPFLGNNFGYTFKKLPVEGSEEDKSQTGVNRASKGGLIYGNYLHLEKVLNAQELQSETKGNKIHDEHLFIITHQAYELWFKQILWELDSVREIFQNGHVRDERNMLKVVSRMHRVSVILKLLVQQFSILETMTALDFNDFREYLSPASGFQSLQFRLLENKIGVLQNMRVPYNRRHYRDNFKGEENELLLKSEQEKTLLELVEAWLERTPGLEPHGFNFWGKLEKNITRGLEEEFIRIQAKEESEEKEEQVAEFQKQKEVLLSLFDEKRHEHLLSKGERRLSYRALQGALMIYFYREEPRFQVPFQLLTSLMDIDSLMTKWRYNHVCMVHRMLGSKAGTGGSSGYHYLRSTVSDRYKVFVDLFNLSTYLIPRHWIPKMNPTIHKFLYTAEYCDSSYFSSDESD
Nature of the assay: In-vitro human tryptophan 2,3-dioxygenase (TDO) enzyme assay. Particulars: for inhibition at 1 µM: hTDO enzyme at 1.0 μM concentration; for inhibition at 10 µM: hTDO enzyme at 10.0 μM concentration. The format is biochemical. The protocol:
In the in-vitro human tryptophan 2,3-dioxygenase (hTDO) enzyme assay for screening inhibitor compounds, hTDO with an N-terminal histidine tag expressed and purified from E. coli (BPS Bioscience, San Diego, Calif., USA) was used. All other materials were procured from Sigma-Aldrich, St. Louis, Mo., USA.
The assay monitoring method for the conversion of L-tryptophan to N-formylkynurenine by hTDO was carried out as follows. hTDO (125 ng) was incubated in the presence of 200 μM L-tryptophan, 100 mM sodium phosphate buffer (pH 7.0), 0.01% Tween-20 and 100 μM ascorbic acid at about 37° C. for about 60 minutes. The reaction was terminated with 200 mM piperidine (PIP) and further incubated at about 65° C. for about 20 minutes to convert N-formylkynurenine (NFK) to NFK-PIP. The reaction mixture was then incubated at room temperature for about 75 minutes. The fluorescence intensity was read in a fluorescence microplate reader at an excitation wavelength of 400 nm and emission wavelength of 500 nm. Percent inhibition at each concentration of test compounds was determined by estimating the decrease in NFK-PIP. Data were analyzed using nonlinear regression to generate IC50 values using Graph Pad Prism® 6.

The values that follow come from patent US20190031665A1, “DERIVATIVES OF PYRROLOIMIDAZOLE OR ANALOGUES THEREOF WHICH ARE USEFUL FOR THE TREATMENT OF INTER ALIA CANCER” (EMCURE PHARMACEUTICALS LIMITED, priority 2016, published 2019).

What is called IC50 is the concentration at which inhibition is half-maximal. A word on the inhibition: it is the share of the control response that was lost under treatment.

T1 sequence (P14902 whole entry): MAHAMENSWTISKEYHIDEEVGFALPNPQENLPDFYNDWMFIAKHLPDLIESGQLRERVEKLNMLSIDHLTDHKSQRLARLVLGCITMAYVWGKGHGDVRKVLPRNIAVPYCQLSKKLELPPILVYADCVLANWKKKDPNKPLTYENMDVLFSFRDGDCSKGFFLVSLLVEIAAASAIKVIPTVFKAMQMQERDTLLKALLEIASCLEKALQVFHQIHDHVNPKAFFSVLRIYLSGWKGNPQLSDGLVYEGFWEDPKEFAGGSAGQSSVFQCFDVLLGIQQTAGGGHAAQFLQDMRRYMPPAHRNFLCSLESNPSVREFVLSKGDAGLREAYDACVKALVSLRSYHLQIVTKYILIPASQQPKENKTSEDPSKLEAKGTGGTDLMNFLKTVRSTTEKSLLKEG

For the compound `COC(=O)c1ccc(C(=O)CC2C(c3ccccc3)=C(C)c3cncn32)cc1` (single isomer, unassigned; isomer-i) [Example 71, 4-[2-(7-Methyl-6-phenyl-5H-pyrrolo[1,2-c]imidazol-5-yl)-acetyl]-benzoic acid methyl ester, Isomer-I], in assay [1], the IC50 is less than 500 nM, the inhibition at 1 µM is not below 50% and the inhibition at 10 µM is not below 50%. In assay [2], the inhibition at 1 µM is not below 50% and the inhibition at 10 µM was not below 50%.
In assay [1], `CC1=C(c2ccccc2)C(CC(=O)N2CCC(O)CC2)n2cncc21` (stereo not drawn) [Compound 175, 1-(4-Hydroxypiperidin-1-yl)-2-(7-methyl-6-phenyl-5H-pyrrolo[1,2-c]imidazol-5-yl)ethan-1-one] had an inhibition at 1 µM not above 50% and an inhibition at 10 µM not above 50%. Further, the inhibition at 1 µM in assay [2] was not above 50%.
Turning to `OC(CC1C2=C(CCCC2)c2cncn21)c1ccccc1` (stereo not drawn) [Example 2, 1-Phenyl-2-(6,7,8,9-tetrahydro-5H-imidazo[5,1-a]isoindol-5-yl)-ethanol], the inhibition at 10 µM in assay [1] is not above 50%; in assay [2], not below 50%.
In assay [1], `CC1=C(c2ccccc2)C(CC(=O)c2ccc(C(=O)Nc3ccc(Cl)cc3)cc2)n2cncc21` (stereo not drawn) [Example 80] had an inhibition at 1 µM not below 50% and an inhibition at 10 µM not below 50%. Also, the inhibition at 1 µM in assay [2] was not below 50%.
In assay [1], `CC1=C(c2ccccc2)C(CC(=O)C2CCC(C(=O)O)CC2)n2cncc21` (stereo not drawn) [Example 130] returned an inhibition at 1 µM not above 50% and an inhibition at 10 µM not above 50%. In assay [2], this compound displayed an inhibition at 1 µM not above 50%.
`CC1=C(c2ccccc2)C(CC(=O)c2ccc(-c3ccccc3F)cc2)n2cncc21` (stereo not drawn) [Example 58]: in assay [1], the IC50 was less than 500 nM, the inhibition at 1 µM is not below 50% and the inhibition at 10 µM is not below 50%. This compound also came in with an inhibition at 1 µM in assay [2] not above 50%.
As to `CC1=C(c2ccccc2)C(CC(=O)c2ccc(-c3ccc(F)cc3)cc2)n2cncc21` (stereo not drawn) [Example 63], in assay [1], the inhibition at 1 µM is not below 50% and the inhibition at 10 µM is not below 50%. In assay [2], this compound had an inhibition at 1 µM not below 50%.
Regarding `CC1=C(c2ccccc2)C(CC(=O)c2ccc(-c3ccncc3)cc2)n2cncc21` (stereo not drawn) [Example 53], in assay [1], the IC50 is less than 500 nM, the inhibition at 1 µM was not below 50% and the inhibition at 10 µM was not below 50%. In addition, in assay [2], the inhibition at 1 µM is not below 50%.
As for `CCOC(=O)CCC(=O)CC1C(c2ccccc2)=C(C)c2cncn21` (stereo not drawn) [Example 173, Ethyl 5-(7-methyl-6-phenyl-5H-pyrrolo[1,2-c]imidazol-5-yl)-4-oxopentanoate], in assay [1], the inhibition at 1 µM is not above 50% and the inhibition at 10 µM was not below 50%. The inhibition at 1 µM in assay [2] was not above 50%.
In assay [1], `CC1=C(c2ccccc2)C(CC(=O)c2ccccc2)n2cncc21` (stereo not drawn) [Example 11, 2-(7-Methyl-6-phenyl-5H-pyrrolo[1,2-c]imidazol-5-yl)-1-phenyl-ethanone] yielded an IC50 of more than 500 nM. Moreover, the inhibition at 10 µM in assay [1] and in assay [2] was not below 50% each time.
For `CC1=C(c2ccccc2)C(CC(O)C2CCN(C(=O)c3ccccn3)CC2)n2cncc21` (single isomer, unassigned) [Example 160], the inhibition at 1 µM in assay [1] and in assay [2] was not above 50% in each case. The compound further had an inhibition at 10 µM in assay [1] not above 50%.
On to `CC1=C(c2ccccc2)C(CC(=O)C2CCC(C(=O)NC3CCCCC3)CC2)n2cncc21` (stereo not drawn) [Example 123], for which, in assay [1], the inhibition at 1 µM is not above 50% and the inhibition at 10 µM was not below 50%. Moreover, the inhibition at 1 µM in assay [2] was not below 50%.
Turning to `CC1=C(c2ccccc2)C(CC(=O)c2ccc(-c3ccsc3)cc2)n2cncc21` (stereo not drawn) [Example 56], in assay [1], the IC50 is less than 500 nM, the inhibition at 1 µM was not below 50% and the inhibition at 10 µM was not below 50%. Further, the inhibition at 1 µM in assay [2] was not above 50%.
In assay [1], `COc1cccc(C(=O)CC2C(c3ccccc3)=C(C)c3cncn32)c1` (stereo not drawn) [Example 33, 1-(3-Methoxy-phenyl)-2-(7-methyl-6-phenyl-5H-pyrrolo[1,2-c]imidazol-5-yl)-ethanone] had an inhibition at 1 µM not above 50% and an inhibition at 10 µM not below 50%. Further, the inhibition at 10 µM in assay [2] is not below 50%.
In assay [1], `CC1=C(c2ccccc2)C(CC(=O)c2cccc(-c3ccccc3)c2)n2cncc21` (stereo not drawn) [Example 69] came in with an IC50 of more than 500 nM, an inhibition at 1 µM not below 50% and an inhibition at 10 µM not below 50%. The compound further had an inhibition at 1 µM in assay [2] not above 50%.
On to `CC1=C(c2ccccc2)C(CC(=O)c2ccc(-c3cnc[nH]3)cc2)n2cncc21` (stereo not drawn) [Example 67], for which, in assay [1], the IC50 is more than 500 nM, the inhibition at 1 µM is not below 50% and the inhibition at 10 µM is not below 50%. Besides, the inhibition at 1 µM in assay [2] is not below 50%.
As to `CC1=C(c2ccccc2)C(CC(=O)c2ccc3c(c2)CCCC3)n2cncc21` (stereo not drawn) [Example 47, 2-(7-methyl-6-phenyl-5H-pyrrolo[1,2-c]imidazol-5-yl)-1-(5,6,7,8-tetrahydronaphthalen-2-yl)ethan-1-one], the inhibition at 1 µM in assay [1] and in assay [2] was not below 50% throughout. In assay [1], this compound came in with an inhibition at 10 µM not below 50%.
Consider `CC(C)C1=C(c2ccccc2)C(CC(=O)C2CCCCC2)n2cncc21` (stereo not drawn) [Example 106], for which the inhibition at 1 µM in assay [1] and in assay [2] was not above 50% each time. Further, in assay [1], the inhibition at 10 µM was not above 50%.
Regarding `CC1=C(c2ccccc2)C(CC(O)C2CCC(F)(F)CC2)n2cncc21` (stereo not drawn) [Example 184], in assay [1], the IC50 is less than 500 nM, the inhibition at 1 µM was not below 50% and the inhibition at 10 µM is not below 50%. In addition, the inhibition at 1 µM in assay [2] was not below 50%.
In the case of `CC1=C(c2cccc(Cl)c2)C(CC(=O)C2CCCCC2)n2cncc21` (stereo not drawn) [Example 95], the inhibition at 1 µM in assay [1] and in assay [2] was not above 50% in each case. Also, the inhibition at 10 µM in assay [1] is not below 50%.
For the compound `CC1=C(c2ccccc2)C(CC(=O)C2CCC(C(=O)Nc3ccc(F)cc3F)CC2)n2cncc21` (stereo not drawn) [Example 110], in assay [1], the inhibition at 1 µM was not above 50% and the inhibition at 10 µM was not below 50%. The compound also registered an inhibition at 1 µM in assay [2] not below 50%.
In assay [1], `CC1=C(c2ccccc2)C(CC(O)C2CCN(C(=O)C(C)C)CC2)n2cncc21` (stereo not drawn) [Example 187] gave an IC50 of more than 500 nM, an inhibition at 1 µM not below 50% and an inhibition at 10 µM not below 50%. This compound yielded an inhibition at 1 µM in assay [2] not above 50%.
As to `CC1=C(c2ccccc2)C(CC(=O)c2ccc(C(=O)Nc3ccc(C)cc3C)cc2)n2cncc21` (stereo not drawn) [Example 84], in assay [1], the inhibition at 1 µM is not below 50% and the inhibition at 10 µM was not below 50%. Also, the inhibition at 1 µM in assay [2] was not below 50%.
On to `CC1=C(c2ccccc2)C(CC(O)C2CCC(O)CC2)n2cncc21` (single isomer, unassigned) [Example 122], for which the IC50 in assay [1] is less than 500 nM.
In the case of `Cc1ccc(S(=O)(=O)N2CCC3=C(C2)C(CC(=O)c2ccccc2)n2cncc23)cc1` (stereo not drawn) [Example 5], the inhibition at 10 µM in assay [1] was not above 50%.
Regarding `CC1=C(c2ccccc2)C(CC(O)C2CCN(C(=O)c3ccccn3)CC2)n2cncc21` (single isomer, unassigned) [Example 161], the IC50 in assay [1] is more than 500 nM.
In assay [1], `OC(CC1C=C(c2ccccc2)c2cncn21)c1ccccc1` (stereo not drawn) [Example 14] gave an inhibition at 10 µM not above 50%.
As to `Cc1ccc(S(=O)(=O)N2CCC3=C(C2)C(CC(O)c2ccccc2)n2cncc23)cc1` (stereo not drawn) [Example 6], the inhibition at 10 µM in assay [1] is not above 50%.
On the same count and under the same terms, the value for `O=C(CC1C=C(c2ccccc2)c2cncn21)c1ccccc1` (stereo not drawn) [Example 13] was not above 50%.
Consider `CC1=C(c2ccccc2)c2cncn2C1CC(=O)c1ccccc1` (stereo not drawn) [Example 21], for which, in assay [1], the inhibition at 1 µM was not above 50% and the inhibition at 10 µM was not above 50%.
Consider `CC1=C(c2ccccc2F)C(CC(=O)C2CCC(O)CC2)n2cncc21` (single isomer, unassigned) [Example 98], for which the inhibition at 10 µM in assay [1] was not below 50%.
Consider `CC1=C(c2ccccc2)C(CC(O)C2CCC(O)CC2)n2cncc21` (stereo not drawn) [Example 111], for which, in assay [1], the IC50 was more than 500 nM and the inhibition at 10 µM is not below 50%.
Regarding `CCCNC(=O)CC1C(c2ccccc2)=C(C)c2cncn21` (stereo not drawn) [Example 172, 2-(7-Methyl-6-phenyl-5H-pyrrolo[1,2-c]imidazol-5-yl)-N-propylacetamide], in assay [1], the inhibition at 1 µM was not above 50% and the inhibition at 10 µM was not above 50%.
